# From PMC6778934, “^99mTc-Labeled LyP-1 for SPECT Imaging of Triple Negative Breast Cancer” (Contrast Media & Molecular Imaging, 2019)
# Tested on: 4T1 cells
# Type: cell-based, murine
# Method: 4T1 murine breast carcinoma cells were purchased from American Type Culture Collection (Manassas, VA, USA) and maintained in RPMI-1640 supplemented with 10% fetal bovine serum (FBS, Gibco, Grand Island, NY, USA). To produce breast cancer models, 4-week-old female BALB/c nude mice were purchased from the Shanghai Laboratory Animal Center at the Chinese Academy of Sciences (Shanghai, China) and subcutaneously injected in the left lateral thigh with 1 × 10^6 tumor cells suspended in 100 μL of PBS. All animal experiments were performed according to protocols established by the Ethics Committee of Shanghai General Hospital. To assess potential cytotoxic effects of LyP-1 or ARAL, cell proliferation assays were conducted with CCK-8 (Dojindo Technologies, Kumamoto, Japan). 4T1 cells (1 × 10^4 per well) were plated on 96-well plates in the RPMI-1640 medium with 10% FBS. After 24 h, the medium was replaced by 100 μL of fresh containing different concentrations of LyP-1 or ARAL (0.1, 1, 5, 10, 20, or 50 μM) for another 24 h. Then, 10 μL CCK-8 was added for 2 h. Absorbance was measured at 450 nm using a Varioskan Flash multimode microplate reader (Thermo Fisher Scientific, Waltham, MA, USA).
smiles,measurement,value
C[C@@H](O)[C@@H]1NC(=O)[C@H](CCCNC(=N)N)NC(=O)[C@H](CCCCN)NC(=O)[C@H](CC(N)=O)NC(=O)CNC(=O)[C@@H](N)CSSC[C@@H](C(=O)O)NC(=O)CNC(=O)[C@H](CCCNC(=N)N)NC1=O [LyP-1],cell viability compared with that for 0.1–10 μM,slightly but not significantly lower
